# In patent publication US20020114854A1, “Chinese herb medicine composition for cancer prophylaxis and therapy” (priority 2001, published 2002):
# Legend:
# Format in all cases: cell-based
# [1] = test system: esophagus cancer cell strain CE-81; test: survival rate of esophagus cancer cell strain CE-81 (CTAQ cell activity, OD 492 nm); set-up: dose or concentration left out as unconfirmed; details: treated 96 hours
# Method: Regarding to the cell strain culture in following embodiments, the culture solution of Ham's F 12/DMEM (v/v 1:1) including 10% (v/v) fetus cattle serum (FCS) and antibiotics (100 μg/ml streptomycin, 100 IU/ml penicillin, 1 μg/ml amphotericin) is used for cultivating all cell strains at 37° C., 5% CO2. When the cell grows to 80% full, the cell is washed down by Trypsin-EDTA to do the sub-culture. For the sub-culture, the cell is rinsed by HBSS first, washed down by Trypsin-EDTA, and centrifugated at 1000 rpm, 25° C. for 10 minutes. Sequentially, the cell is diluted by four times culture solution to be continuously cultivated. In addition, the sub-culture is done once per week. […]
# The esophagus cancer cell strain, CE-81, is washed down by Trypsin-EDTA, centrifugated, and diluted to a cell concentration of 10^6 cells/ml by FCS-free culture solution. […] After different treating time, the cell strain CE-81 is added […] cell activity detecting agent CTAQTM, and the cell activity is detected at OD 492 nm by multiple frequency scanner. […] Thus, the survival rate of cell (%) is obtained via comparing the determined value difference between after and before adding CTAQ with the standard curve by intercalation.
# [2] = test system: cervical cancer cell strain CC-135; test: survival rate of cervical cancer cell strain CC-135 (CTAQ cell activity); set-up: dose or concentration left out as unconfirmed; details: 10 p, 1.0 p or 0.1 p cis-Platine, treated 24 hours
# [3] = test system: ovary cancer cell strain OC-117; test: survival rate of ovary cancer cell strain OC-117 (CTAQ cell activity); details: 10 p (20 mg/ml) cis-Platine, treated over 48 hours
# [4] = test system: bladder cancer cell strain Bladder-3; test: survival rate of bladder cancer cell strain Bladder-3 (CTAQ cell activity); set-up: dose or concentration left out as unconfirmed; details: treated over 48 hours
structure (smiles),measurement,setting,value
[NH2][Pt]([NH2])([Cl])[Cl] [cis-Platine],survival rate of CE-81,[1],about 60%
same,survival rate of CC-135,[2],about 50%
same,survival rate of OC-117,[3],below 20%
same,inhibition effect on Bladder-3 (in words),[4],significant inhibition effect
